These are literature values, as cited in PubChem BioAssay AID1259410 (Chemical Carcinogenesis Research Information System (CCRIS), 2018).

Each structure is given as a SMILES string.

The data set relates to rodent tumor promotion studies, tumor incidence. Nature of the data set: CCRIS tumor promotion studies.

As to `Cc1cccc(C)c1NC1=NCCCS1`, the outcome is “thyroid gland: follicular cell adenoma or carcinoma” (Carcinogen: N-BIS(2-HYDROXYPROPYL)NITROSAMINE, 53609-64-6, Doses [Carcinogen]: 2,400 MG/KG ONCE, Doses [Promoter]: 0, 1,000 PPM IN DIET FOR 52 WK BEGINNING 1 WK POST CARCINOGEN DOSE (STUDY DURATION: 28 WK), Route [Carcinogen]: SUBCUTANEOUS, Route [Promoter]: ORAL, Species: RAT, Strain/Sex: F344/MALE); “thyroid gland: follicular cell hyperplasia, follicular cell adenoma” (Carcinogen: N-NITROSOBIS(2-HYDROXYPROPYL)AMINE [53609-64-6], Doses [Carcinogen]: 2400 MG/KG IN SALINE ONCE, Doses [Promoter]: 0, 250, 500, 1000 PPM IN DIET FOR 26 WK, BEGINNING 1 WK AFTER CARCINOGEN DOSE (STUDY DURATION: 27 WK), Doses [Promoter]: 0, 250, 500, 1000 PPM IN DIET FOR 26 WK, BEGINNING 1 WK AFTER CARCINOGEN DOSE (STUDY DURATION: 27 WK), Route [Carcinogen]: SUBCUTANEOUS, Route [Promoter]: ORAL, Species: RAT, Strain/Sex: F344/MALE); “thyroid: adenoma and carcinoma” (Carcinogen: N-NITROSOBIS(2-HYDROXYPROPYL)AMINE, 53609-64-6, Doses [Carcinogen]: 2400 MG/KG IN SALINE ONCE, Doses [Promoter]: 0, 1,000 PPM IN FEED FOR 52 WK BEGINNING 1 WK POST CARCINOGEN TREATMENT (STUDY DURATION: 53 WK), Route [Carcinogen]: SUBCUTANEOUS, Route [Promoter]: ORAL, Species: RAT, Strain/Sex: F344/MALE).

Regarding `S=C=NCCc1ccccc1`, where the note is “Carcinogen: DIETHYLNITROSAMINE, 55-18-5, N-BUTYL-N-(4-HYDROXYBUTYL)NITROSAMINE, 3817-11-6, Carcinogen: DIETHYLNITROSAMINE, 55-18-5, N-BUTYL-N-(4-HYDROXYBUTYL)NITROSAMINE, 3817-11-6, Doses [Carcinogen]: 200 MG/KG DEN ONCE THEN 0.05% BBN IN DRINKING WATER FOR 4 WK, Doses [Promoter]: 0, 0.1% IN DIET FOR 32 WKS BEGINNING 3 D POST CARCINOGEN TREATMENT (STUDY DURATION:36 WK), Route [Carcinogen]: INTRAPERITONEAL, ORAL, Route [Promoter]: ORAL, Species: RAT, Strain/Sex: F344/MALE”, the outcome was “urinary bladder: carcinoma”.

Turning to `CCCCCCCC/C=C\CCCCCCCC(=O)OC[C@@H](O)[C@H]1OC[C@H](O)[C@H]1O`, for the setting “Carcinogen: 7,12-DIMETHYLBENZ(A)ANTHRACENE, Doses [Carcinogen]: TOP, Route [Carcinogen]: DERMAL, Route [Promoter]: DERMAL, Species: MOUSE, Strain/Sex: MALE”, the outcome is on record as “integumentary system (skin)”. For `Cc1nccc2c1[nH]c1ccccc12`, the outcome (Carcinogen: N-ETHYL-N-HYDROXYETHYLNITROSAMINE, 13147-25-6, Doses [Carcinogen]: 0.1% IN DRINKING WATER FOR 2 WK, Doses [Promoter]: 0, 1000 PPM IN DIET BEGINNING 1 WK POST CARCINOGEN TREATMENT AND CONTINUING FOR 23 WK (STUDY DURATION: 26 WK), Route [Carcinogen]: ORAL, Route [Promoter]: ORAL, Species: RAT, Strain/Sex: F344/MALE) is recorded as “kidney: adenoma”. In the case of `C=C(C)[C@H]1CC=C(C)CC1`, the outcome is, setting by setting: (Carcinogen: 7,12-DIMETHYLBENZ(A)ANTHRACENE, Doses [Carcinogen]: TOP, Route [Carcinogen]: DERMAL, Route [Promoter]: DERMAL, Species: MOUSE, Strain/Sex: MALE,FEMALE) “integumentary system (skin)”; (Carcinogen: N-ETHYL-N-HYDROXYETHYLNITROSAMINE, 13147-25-6, Doses [Carcinogen]: 500 PPM IN DRINKING WATER FOR 2 WK, Doses [Promoter]: 0, 150 MG/KG/D IN CORN OIL 5 D/WK FOR 30 WK BEGINNING POST CARCINOGEN TREATMENT (STUDY DURATION: 32 WK), Route [Carcinogen]: ORAL, Route [Promoter]: GAVAGE, Species: RAT, Strain/Sex: F344/MALE) “kidney: adenoma”; (Carcinogen: URETHANE, Doses [Carcinogen]: TOP, Route [Carcinogen]: DERMAL, Route [Promoter]: DERMAL, Species: MOUSE, Strain/Sex: MALE,FEMALE) “integumentary system (skin)”.

Consider `S=C=NCCCCCCc1ccccc1`, for which the outcome reads like this: (Carcinogen: AZOXYMETHANE, 25843-45-2, Doses [Carcinogen]: 15 MG/KG BW 1/WK FOR 2 WK, Doses [Promoter]: 0, 640 PPM IN DIET BEGINNING 2 WK PRIOR TO CARCINOGEN DOSE (STUDY DURATION: 56 WK), Route [Carcinogen]: SUBCUTANEOUS, Route [Promoter]: ORAL, Species: RAT, Strain/Sex: F344/MALE) “intestine: adenocarcinoma”; (Carcinogen: N-METHYL-N-BENZYLNITROSAMINE, 937-40-6, Doses [Carcinogen]: 0.5 MG/KG BW 1/WK FOR 15 WK, Doses [Promoter]: 0, 1, 2.5 UMOL/G DIET FOR DURATION OF STUDY BEGINNING 2 WK PRIOR TO CARCINOGEN TREATMENT (STUDY DURATION: 21 WK), Doses [Promoter]: 0, 1, 2.5 UMOL/G DIET FOR DURATION OF STUDY BEGINNING 2 WK PRIOR TO CARCINOGEN TREATMENT (STUDY DURATION: 21 WK), Route [Carcinogen]: SUBCUTANEOUS, Route [Promoter]: ORAL, Species: RAT, Strain/Sex: F344/MALE) “esophagus: tumor”. With `CC(C)C[C@H]1C(=O)N2CCC[C@H]2[C@]2(O)O[C@](NC(=O)[C@@H]3C=C4c5cccc6[nH]c(Br)c(c56)C[C@H]4N(C)C3)(C(C)C)C(=O)N12`, the outcome reads like this: (Carcinogen: 3-METHYLCHOLANTHRENE, 56-49-5, Doses [Carcinogen]: 1.5 MG IN TRICAPRYLIN ONCE, Doses [Promoter]: 0, 3 MG/KG/D IN 50% ETHANOL FOR 16 CONSECUTIVE DAYS BEGINNING 2 D PRIOR TO CARCINOGEN DOSE AND AGAIN FOR 14 D BEGINNING, Route [Carcinogen]: SUBCUTANEOUS, Route [Promoter]: SUBCUTANEOUS, Species: RAT, Strain/Sex: SPRAGUE-DAWLEY/MALE) “injection site: tumor”; (Carcinogen: N-METHYL-N'-NITRO-N-NITROSOGUANIDINE, 70-25-7, Doses [Carcinogen]: 40 ML OF A 50 UG/ML DEIONIZED WATER SOLUTION 1/2 D FOR 25 WK (AVERAGE TOTAL DOSE 170 MG), Doses [Promoter]: 0, 1, 2, MG/KG IN 0.1 ML/KG OLIVE OIL 1/2 D FOR 25 WK ADMINISTERED POST CARCINOGEN (STUDY DURATION: 52 WK), Doses [Promoter]: 0, 1, 2, MG/KG IN 0.1 ML/KG OLIVE OIL 1/2 D FOR 25 WK ADMINISTERED POST CARCINOGEN (STUDY DURATION: 52 WK), Route [Carcinogen]: ORAL, Route [Promoter]: SUBCUTANEOUS, Species: RAT, Strain/Sex: WISTAR/MALE) “glandular stomach: adenocarcinoma”.

For `CCCC(C)C1(CC)C(=O)NC(=O)NC1=O` (configuration not stated), the outcome (Carcinogen: N-NITROSODIETHYLAMINE, 55-18-5, Doses [Carcinogen]: 75 MG/KG BW IN 0.85% SALINE ONCE, Doses [Promoter]: 0, 485 PPM IN DIET FOR DURATION OF STUDY BEGINNING 2 WK POST CARCINOGEN DOSE (STUDY DURATION: 78 WK), Route [Carcinogen]: INTRAPERITONEAL, Route [Promoter]: ORAL, Species: RAT, Strain/Sex: F344/MALE) is listed as “liver: carcinoma, adenoma”. `NC(Cc1c[nH]c2ccccc12)C(=O)O` (configuration not stated): the outcome was “urinary bladder” (Carcinogen: 2-NAPHTHYLAMINE, Doses [Carcinogen]: DIET, Doses [Promoter]: IN DIET, Route [Carcinogen]: ORAL, Route [Promoter]: ORAL, Species: DOG, Strain/Sex: FEMALE) and “urinary bladder: papilloma, carcinoma” (Carcinogen: N-(4-(5-NITRO-2-FURYL)-2-THIAZOLYL)FORMAMIDE, Doses [Carcinogen]: DIET, Doses [Promoter]: IN DIET, Route [Carcinogen]: ORAL, Route [Promoter]: ORAL, Species: RAT, Strain/Sex: F344/MALE). As for `C=C[C@@](C)(CCC=C(C)C)c1ccc2c3c(c[nH]c13)C[C@@H](CO)NC(=O)[C@H](C(C)C)N2C`, the outcome is reported as “skin: tumor” (Carcinogen: 7,12-DIMETHYLBENZ[A]ANTHRACENE, 57-97-6, Doses [Carcinogen]: 100 UG IN 0.1 ML ACETONE, Doses [Promoter]: 0, 3 UG IN 0.1 ML ACETONE 2/WK FOR 29 WK BEGINNING 1 WK POST CARCINOGEN DOSE (STUDY DURATION: 30 WK), Route [Carcinogen]: DERMAL, Route [Promoter]: DERMAL, Species: MOUSE) and “skin: papilloma” (Carcinogen: DIMETHYLBENZ[A]ANTHRACENE, 57-97-6, Doses [Carcinogen]: 100 UG IN 100 µL ACETONE APPLIED TO THE BACK ONCE, Doses [Promoter]: 2.5 UG IN 100 µL ACETONE APPLIED TO THE BACK FOR 30 WK BEGINNING 1 WK POST CARCINOGEN DOSE (STUDY DURATION: 31 WK), Route [Carcinogen]: DERMAL, Route [Promoter]: DERMAL, Species: MOUSE, Strain/Sex: CD-1/FEMALE). Turning to `CCCCCCCCCCCC1(CCCC(=O)OC2C(C)C3(O)C(C=C(CO)CC4(O)C(=O)C(C)=CC43)C3C(C)(C)C23OC(C)=O)OCC(C)(C)N1[O]` (configuration not stated), where the note is “Carcinogen: 7,12-DIMETHYLBENZ[A]ANTHRACENE, 57-97-6, Doses [Carcinogen]: 100 NMOL ONCE, Doses [Promoter]: 0, 5 NMOL 2/WK FOR 24 WK BEGINNING 1 WK POST CARCINOGEN DOSE (STUDY DURATION: 25 WK), Route [Carcinogen]: DERMAL, Route [Promoter]: DERMAL, Species: MOUSE, Strain/Sex: NMRI/FEMALE”, the outcome was “skin: tumor”. As for `CC1=C2C(=CO[C@H](C)[C@H]2C)C(=O)C(C(=O)O)=C1O`, the outcome by setting is: (Carcinogen: OCHRATOXIN A, 303-47-9, Doses [Carcinogen]: 0.25 ML OF A 50 PPM SOLUTION 2/WK FOR 20 WK, Doses [Promoter]: 0, 0.25 ML OF 50 PPM SOLUTION 2/WK FOR 20 WK ADMINISTERED SIMULTANEOUSLY WITH CARCINOGEN TREATMENT (STUDY DURATION: 20 W, Route [Carcinogen]: GAVAGE, Route [Promoter]: GAVAGE, Species: MOUSE, Strain/Sex: ALBINO/MALE,FEMALE) “kidney: tumor”; (Carcinogen: OCHRATOXIN A, 303-47-9, Doses [Carcinogen]: 0.25 ML OF A 50 PPM SOLUTION 2/WK FOR 20 WK, Doses [Promoter]: 0, 0.25 ML OF A 50 PPM SOLUTION ADMINISTERED SIMULTANEOUSLY WITH CARCINOGEN DOSE 2/WK FOR 20 WK (STUDY DURATION: 20 WK), Route [Carcinogen]: GAVAGE, Route [Promoter]: GAVAGE, Species: MOUSE, Strain/Sex: SWISS/MALE,FEMALE) “kidney: tumor”. Regarding `Cc1cccc(O)c1`, the outcome (Carcinogen: 7,12-DIMETHYLBENZ(A)ANTHRACENE, Doses [Carcinogen]: TOP, Route [Carcinogen]: DERMAL, Route [Promoter]: DERMAL, Species: MOUSE, Strain/Sex: FEMALE) is “integumentary system (skin)”.
